Patent EP0629402A1, “Pharmaceutical compositions containing ipsapirone” (BAYER AG, priority 1993, dated 1994)

Experiment: Pharmacokinetic studies: bioavailability after oral administration
Conditions: in vivo, nach oraler Gabe, read-out: Bioverfügbarkeit
From the text: Als Ergebnis pharmakokinetischer Untersuchungen wurde festgestellt, daß Ipsapiron nach oraler Gabe eine Bioverfügbarkeit von nur 40 % aufweist. Ein erheblicher Wirkstoffanteil wird bereits präsystemisch metabolisiert und kann nicht bioverfügbar werden. Dies ist nachteilig, weil dieser Substanzverlust durch eine erhöhte Wirkstoffdosis ausgeglichen werden muß. Es resultieren große, für den Patienten schlecht schluckbare Arzneiformen und eine erhebliche Belastung des Patienten mit pharmakologisch inaktiven Ipsapiron-Metaboliten. Ferner nehmen mit sinkender Bioverfugbarkeit die interindividuellen Schwankungen im Plasmakonzentrationsverlauf zu und die Therapie wird unkalkulierbar.

bioavailability: 40%
Structure (SMILES): O=C1c2ccccc2S(=O)(=O)N1CCCCN1CCN(c2ncccn2)CC1 [Ipsapiron]
